In patent US20260042731A1, “(2,4-DICHLOROPHENOXY)ACETIC ACID ANALOGS” (CORTEVA AGRISCIENCE LLC, priority 2022, published 2026):
“And” between values parts separate entries of the source, which are not always exact repeats. Identical values can stand only once. Like-named read-outs stand apart in the source and are kept apart here.

Key:
[1] = Volatility of compounds measured by thermogravimetric analysis (TGA); format: physicochemical
[2] = test system: glyphosate resistant Conyza canadensis (L.) (ERICA), horseweed; assay: Postemergence herbicide evaluation, growth of Conyza canadensis (ERICA); format: in vivo; conditions: Erigeron canadensis, post-emergence, read-out: Ave. ERICA, percent reduction in plant size relative to the untreated control; for pest or weed control at 280 g/ha: 280 g ae/ha; for pest or weed control at 560 g/ha: 560 g ae/ha
[3] = test system: weeds ABUTH, AMATA, AMBEL, CHEAL, ERICA; assay: Postemergence herbicide evaluation, overall average % weed control (ABUTH, AMATA, AMBEL, CHEAL, ERICA); format: in vivo; conditions: post-emergence, read-out: Overall Ave % Weed Control; for pest or weed control at 280 g/ha: 280 g ae/ha; for pest or weed control at 560 g/ha: 560 g ae/ha
[4] = test system: Amaranthus rudis (AMATA), tall water hemp; assay: Postemergence herbicide evaluation, growth of Amaranthus rudis (AMATA); format: in vivo; conditions: Amaranthus tuberculatus, post-emergence, read-out: Ave. AMATA, percent reduction in plant size relative to the untreated control; for pest or weed control at 280 g/ha: 280 g ae/ha; for pest or weed control at 560 g/ha: 560 g ae/ha
[5] = test system: Chenopodium album (CHEAL), common lambsquarters; assay: Postemergence herbicide evaluation, growth of Chenopodium album (CHEAL); format: in vivo; conditions: Chenopodium album, post-emergence, read-out: Ave. CHEAL, percent reduction in plant size relative to the untreated control; for pest or weed control at 280 g/ha: 280 g ae/ha; for pest or weed control at 560 g/ha: 560 g ae/ha
[6] = test system: Abutilon theophrasti (ABUTH), velvetleaf; assay: Postemergence herbicide evaluation, growth of Abutilon theophrasti (ABUTH); format: in vivo; conditions: Abutilon theophrasti, post-emergence, read-out: AVE. ABUTH, percent reduction in plant size relative to the untreated control; for pest or weed control at 280 g/ha: 280 g ae/ha; for pest or weed control at 560 g/ha: 560 g ae/ha
[7] = test system: Ambrosia artemisiifolia (AMBEL), common ragweed; assay: Postemergence herbicide evaluation, growth of Ambrosia artemisiifolia (AMBEL); format: in vivo; conditions: Ambrosia artemisiifolia, post-emergence, read-out: AVE. AMBEL, percent reduction in plant size relative to the untreated control; for pest or weed control at 280 g/ha: 280 g ae/ha; for pest or weed control at 560 g/ha: 560 g ae/ha

| Compound | TGA Data (rate of weight loss, volatility) [1] | pest or weed control at 280 g/ha ([2]; 168 h, 7 DAA) [%] | pest or weed control at 560 g/ha ([2]; 168 h, 7 DAA) [%] | pest or weed control at 280 g/ha ([2]; 336 h, 14 DAA) [%] | pest or weed control at 560 g/ha ([2]; 336 h, 14 DAA) [%] | pest or weed control at 280 g/ha ([2]; 504 h, 21 DAA) [%] | pest or weed control at 560 g/ha ([2]; 504 h, 21 DAA) [%] | pest or weed control at 280 g/ha ([3]; 168 h, 7 DAA) [%] | pest or weed control at 560 g/ha ([3]; 168 h, 7 DAA) [%] | pest or weed control at 280 g/ha ([3]; 336 h, 14 DAA) [%] | pest or weed control at 560 g/ha ([3]; 336 h, 14 DAA) [%] | pest or weed control at 280 g/ha ([3]; 504 h, 21 DAA) [%] | pest or weed control at 560 g/ha ([3]; 504 h, 21 DAA) [%] | pest or weed control at 280 g/ha ([4]; 168 h, 7 DAA) [%] | pest or weed control at 560 g/ha ([4]; 168 h, 7 DAA) [%] | pest or weed control at 280 g/ha ([4]; 336 h, 14 DAA) [%] | pest or weed control at 560 g/ha ([4]; 336 h, 14 DAA) [%] | pest or weed control at 280 g/ha ([4]; 504 h, 21 DAA) [%] | pest or weed control at 560 g/ha ([4]; 504 h, 21 DAA) [%] | pest or weed control at 280 g/ha ([5]; 168 h, 7 DAA) [%] | other results |
| --- | --- | --- | --- | --- | --- | --- | --- | --- | --- | --- | --- | --- | --- | --- | --- | --- | --- | --- | --- | --- | --- |
| O=C(COc1ccc(Cl)cc1Cl)O/N=C/c1ccncc1 [Compound A30] | 0.9679 µg/min | 87.5 | 80 | 100 | 100 | 99 | 94.5 | 78 | 86.1 | 91.5 | 95.5 | 95.4 | 98.6 | 75 | 94 | 96 | 93.5 | 92.5 | 99 | 80 | pest or weed control at 560 g/ha ([5]; 168 h, 7 DAA): 80%; pest or weed control at 280 g/ha ([5]; 336 h, 14 DAA): 94%; pest or weed control at 560 g/ha ([5]; 336 h, 14 DAA): 90%; pest or weed control at 280 g/ha ([5]; 504 h, 21 DAA): 98%; pest or weed control at 560 g/ha ([5]; 504 h, 21 DAA): 100%; pest or weed control at 280 g/ha ([6]; 168 h, 7 DAA): 62.5%; pest or weed control at 560 g/ha ([6]; 168 h, 7 DAA): 80%; pest or weed control at 280 g/ha ([6]; 336 h, 14 DAA): 77.5%; pest or weed control at 560 g/ha ([6]; 336 h, 14 DAA): 96.5%; pest or weed control at 280 g/ha ([6]; 504 h, 21 DAA): 87.5%; pest or weed control at 560 g/ha ([6]; 504 h, 21 DAA): 99.5%; pest or weed control at 280 g/ha ([7]; 168 h, 7 DAA): 85%; pest or weed control at 560 g/ha ([7]; 168 h, 7 DAA): 96.5%; pest or weed control at 280 g/ha ([7]; 336 h, 14 DAA): 90%; pest or weed control at 560 g/ha ([7]; 336 h, 14 DAA): 97.5%; pest or weed control at 280 g/ha ([7]; 504 h, 21 DAA): 100%; pest or weed control at 560 g/ha ([7]; 504 h, 21 DAA): 100% |
| O=C(COc1ccc(Cl)cc1Cl)O/N=C/c1ccccn1 [Compound A32] | 0.809 µg/min and 0.87 µg/min | 87.5 | 75 | 97 | 99.5 | 99 | 98 | 74 | 76.5 | 87.4 | 92.6 | 88.8 | 97.6 | 70 | 90 | 96 | 87.5 | 60 | 94 | 82.5 | pest or weed control at 560 g/ha ([5]; 168 h, 7 DAA): 75%; pest or weed control at 280 g/ha ([5]; 336 h, 14 DAA): 97.5%; pest or weed control at 560 g/ha ([5]; 336 h, 14 DAA): 95%; pest or weed control at 280 g/ha ([5]; 504 h, 21 DAA): 97.5%; pest or weed control at 560 g/ha ([5]; 504 h, 21 DAA): 97.5%; pest or weed control at 280 g/ha ([6]; 168 h, 7 DAA): 55%; pest or weed control at 560 g/ha ([6]; 168 h, 7 DAA): 67.5%; pest or weed control at 280 g/ha ([6]; 336 h, 14 DAA): 74%; pest or weed control at 560 g/ha ([6]; 336 h, 14 DAA): 88.5%; pest or weed control at 280 g/ha ([6]; 504 h, 21 DAA): 87.5%; pest or weed control at 560 g/ha ([6]; 504 h, 21 DAA): 98.5%; pest or weed control at 280 g/ha ([7]; 168 h, 7 DAA): 75%; pest or weed control at 560 g/ha ([7]; 168 h, 7 DAA): 75%; pest or weed control at 280 g/ha ([7]; 336 h, 14 DAA): 72.5%; pest or weed control at 560 g/ha ([7]; 336 h, 14 DAA): 92.5%; pest or weed control at 280 g/ha ([7]; 504 h, 21 DAA): 100%; pest or weed control at 560 g/ha ([7]; 504 h, 21 DAA): 100% |
